Test results as given in patent US12544372B2, “Methods of treating rheumatoid arthritis, chronic spontaneous urticaria, and systemic lupus erythematosis using an inhibitor of Bruton's tyrosine kinase” (Genentech, Inc., priority 2019, dated 2026).
Marks after values point to notes of the source that are not given here.

Experiments:
Type in all cases: in vivo, human
CRP = experiment: RA study: CRP versus baseline
Protocol: As used herein, “CRP” refers to C-reactive protein, or the blood test for inflammation in the body which measures C-reactive protein in the blood. CRP, a protein produced in the liver, will increase in concentration in the blood in response to inflammation. CRP may be measured by a “hsCRP” test, which measures high sensitivity CRP. In some embodiments, a positive result for elevated CRP is as measured by hsCRP ≥0.400 mg/dL hsCRP test. In other embodiments, a positive result for elevated CRP is as measured by a hsCRP ≥0.650 mg/dL hsCRP test. CRP tests are widely available from a variety of vendors (LabCorp, Quest Diagnostics, Life Line Screening, etc.).
The specific components of the ACR Assessments used in this study are as follows: Tender/Painful Joint Count (68), Swollen Joint Count (66), Patient's Assessment of Arthritis Pain, Patient's Global Assessment of Arthritis, Physician's Global Assessment of Arthritis, CRP and HAQ-DI.

[1] = test system: Rheumatoid factor (RF) IgM autoantibody; experiment: RA study biomarker: rheumatoid factor IgM autoantibody; settings: for Rheumatoid factor (RF) IgM autoantibody levels: by Week 12 (92% placebo)
Protocol: (§1) Biomarkers were evaluated in serum or plasma samples at baseline and weeks 1, 4, and 12 in patients with available samples (cohort 1: n=438; cohort 2: n=86). The biomarkers evaluated in this assessment were chemokine [C-C motif] ligand 4 (CCL4), IL-6, and TNF-like cytokine 1A (TL1A). Total IgM, IgG, rheumatoid factor IgM autoantibody (RF), CCL4, TL1A, IL-6, and anti-CCP autoantibody (ACPA IgG) levels were analyzed with immunoassays. CD19^+ B cells and CD3^+ T cells were measured by flow cytometry. The proportion of patients achieving an ACR50 response at week 12 and the change in DAS28 score by week 12 were assessed relative to seropositivity (RF and/or ACPA positive at baseline) or baseline levels of RF in both cohorts. To select which biomarkers to evaluate in this trial, BTK-dependent myeloid biomarkers were identified using peripheral blood CD14^+ monocytes stimulated with immune-complexes in the presence or absence of a BTK inhibitor. In brief, the expression levels of genes in human monocytes were assayed under conditions of no stimulation; with human serum albumin immune complex stimulation; with stimulation and a low concentration of a BTK inhibitor with similar characteristics to fenebrutinib; or with stimulation and a high concentration of the BTK inhibitor. […] Genes annotated with cytokine activity were selected. The color bar represents normalized gene expression.

CD3+ T cells = experiment: RA study: CD3+ T cells (flow cytometry); settings: cohort 1 and cohort 2, week 1
Protocol: as §1

RA study: safety = experiment: RA study: safety
Excerpt: Investigator conducted assessments: Joint counts and Physician's Global Assessment of Arthritis visual analog scale (VAS), safety assessments (adverse events, vital signs, concomitant medications, review of laboratory data). For Cohort 1 only: SC comparator drug injection; For Cohorts 1 and 2: Administration of oral study drug.

Total IgG = experiment: SLE study biomarker: total IgG

C[C@H]1CN(C2COC2)CCN1c1ccc(Nc2cc(-c3ccnc(N4CCn5c(cc6c5CC(C)(C)C6)C4=O)c3CO)cn(C)c2=O)nc1 [fenebrutinib, (S)-2-(3′-(hydroxymethyl)-1-methyl-5-((5-(2-methyl-4-(oxetan-3-yl)piperazin-1-yl)pyridin-2-yl)amino)-6-oxo-1,6-dihydro-[3,4′-bipyridin]-2′-yl)-7,7-dimethyl-2,3,4,6,7,8-hexahydro-1H-cyclopenta[4,5]pyrrolo[1,2-a]pyrazin-1-one]
CRP, % of BL CRP (CRP; Cohort 1, 200 mg BID, Week 8 and Week 12): 59%
CRP levels (CRP; Cohort 2, Week 8 and Week 12): reduced CRP levels
Rheumatoid factor (RF) IgM autoantibody levels ([1]; 150 mg QD arm): 66%
Rheumatoid factor (RF) IgM autoantibody levels ([1]; 200 mg BID arm): 64%
RF IgM median reduction relative to placebo ([1]; cohort 1, 200 mg twice daily, by week 12): −29%
CD3+ T cells relative to placebo (CD3+ T cells): +10-15%
overall safety profile (RA study: safety; RA study): comparable to placebo and ADA
Grade 3 LFT elevations (RA study: safety; fenebrutinib arms versus placebo and ADA): numerically more
Total IgG, Median Change from Baseline at Week 48 (Total IgG; 150 mg QD): −1.25* g/L
Total IgG, Median Change from Baseline at Week 48 (Total IgG; 200 mg BID): −1.56* g/L
